Source: patent US11477982B2, “2-amino-5-oxyalkyl-pyrimidine derivatives and their use for controlling undesired plant growth” (Bayer CropScience Aktiengesellschaft, priority 2017, dated 2022)

Tests used:
Format in all cases: in vivo
[1] = tested on: AMARE: Amaranthus retroflexus; test: Pre-emergence herbicidal effect; settings: for Herbicidal action against AMARE: pre-emergence; for Herbicidal efficacy against AMARE: Table 4b, pre-emergence as titled, dosage 80 g of a.i./ha
Text: (§1) 1. Pre-Emergence Herbicidal Effect and Crop Plant Compatibility
(§2) Seeds of monocotyledonous and dicotyledonous weed plants and crop plants are placed in plastic or wood fiber pots and covered with soil. The compounds of the invention, formulated in the form of wettable powders (WP) or as emulsion concentrates (EC), are then applied onto the surface of the covering soil as aqueous suspension or emulsion with addition of 0.5% additive at a water application rate of 600 l/ha (converted).
(§3) After the treatment, the pots are placed in a greenhouse and kept under good growth conditions for the trial plants. After about 3 weeks, the effect of the preparations is scored visually in comparison with untreated controls as percentages. For example, 100% activity=the plants have died, 0% activity=like control plants.

[2] = tested on: MATIN: Matricaria inodora; test: Pre-emergence herbicidal effect; settings: for Herbicidal action against MATIN: pre-emergence, dosage 320 g/ha; for Herbicidal efficacy against MATIN: Table 4b, pre-emergence as titled, dosage 80 g of a.i./ha
Text: as §1, §2, §3

[3] = tested on: POLCO: Polygonum convolvulus; test: Pre-emergence herbicidal effect; settings: for Herbicidal efficacy against POLCO: Table 4a, dosage 20 g of a.i./ha
Text: as §1, §2, §3

VERPE: Veronica persica = test: Pre-emergence herbicidal effect; settings: dosage 320 g/ha
Text: as §1, §2, §3

VIOTR: Viola tricolor = test: Pre-emergence herbicidal effect; settings: dosage 320 g/ha
Text: as §1, §2, §3

[4] = tested on: ABUTH: Abutilon theophrasti; test: Post-emergence herbicidal effect; settings: dosage 320 g/ha
Protocol: (§4) 2. Post-Emergence Herbicidal Effect and Crop Plant Compatibility
(§5) Seeds of monocotyledonous and dicotyledonous weeds and crop plants are placed in sandy loam in plastic or wood-fiber pots, covered with soil and cultivated in a greenhouse under controlled growth conditions, 2 to 3 weeks after sowing, the test plants are treated at the one-leaf stage. The compounds of the invention, formulated in the form of wettable powders (WP) or as emulsion concentrates (EC), are then sprayed onto the green parts of the plants as aqueous suspension or emulsion with addition of 0.5% additive at a water application rate of 600 l/ha (converted). After the test plants had been kept in the greenhouse under optimum growth conditions for about 3 weeks, the activity of the preparations is rated visually in comparison to untreated controls. For example, 100% activity=the plants have died, 0% activity=like control plants.

[5] = tested on: AMARE: Amaranthus retroflexus; test: Post-emergence herbicidal effect; settings: dosage 320 g/ha
Protocol: as §4, §5

[6] = tested on: ECHCG: Echinochloa crus-galli; test: Post-emergence herbicidal effect; settings: dosage 320 g/ha
Protocol: as §4, §5

STEME: Stellaria media [7] = test: Post-emergence herbicidal effect; settings: dosage 320 g/ha
Protocol: as §4, §5

[8] = tested on: ABUTH: Abutilon theophrasti; test: Pre-emergence herbicidal effect; settings: for Herbicidal efficacy against ABUTH: Table 4a, dosage 20 g of a.i./ha
Text: as §1, §2, §3

[9] = tested on: ALOMY: Alopecurus myosuroides; test: Pre-emergence herbicidal effect
Text: as §1, §2, §3

AVEFA: Avena fatua = test: Pre-emergence herbicidal effect
Text: as §1, §2, §3

[10] = tested on: ECHCG: Echinochloa crus-galli; test: Pre-emergence herbicidal effect
Text: as §1, §2, §3

LOLRI: Lolium rigidum = test: Pre-emergence herbicidal effect; settings: for Herbicidal efficacy against LOLRI: Table 4a, dosage 20 g of a.i./ha
Text: as §1, §2, §3

SETVI: Setaria viridis = test: Pre-emergence herbicidal effect
Text: as §1, §2, §3

HORMU: Hordeum murinum = test: Pre-emergence herbicidal effect; settings: for Herbicidal efficacy against HORMU: Table 4b, pre-emergence as titled, dosage 80 g of a.i./ha
Text: as §1, §2, §3

PHBPU: Ipomoea purpurea = test: Pre-emergence herbicidal effect; settings: for Herbicidal efficacy against PHBPU: Table 4a, dosage 20 g of a.i./ha
Text: as §1, §2, §3

STEME: Stellaria media [11] = test: Pre-emergence herbicidal effect; settings: Table 4b; pre-emergence as titled; dosage 80 g of a.i./ha
Text: as §1, §2, §3

[12] = Table 4a, pre-emergence, dosage 20 g of a.i./ha
[13] = Table 4b, pre-emergence as titled, dosage 80 g of a.i./ha

Cc1ccc2c(c1)[C@H](Nc1ncc(C(C)(O)CC(C)C)cn1)[C@@H](C)C2 (stereo partly shown) [Example 1.25]
Herbicidal action against AMARE ([1]; dosage 320 g/ha): 100%
Herbicidal action against MATIN [2]: 100%
Herbicidal action against POLCO ([3]; dosage 320 g/ha): 100%
Herbicidal action against VERPE (VERPE: Veronica persica): 100%
Herbicidal action against VIOTR (VIOTR: Viola tricolor): 100%

Cc1ccc2c(c1)[C@H](Nc1ncc(C(C)(O)Cc3ccccc3)cn1)[C@@H](C)C2 (stereo partly shown) [Example 1.26]
Herbicidal action against AMARE ([1]; dosage 320 g/ha): 100%
Herbicidal action against MATIN [2]: 100%
Herbicidal action against POLCO ([3]; dosage 320 g/ha): 100%
Herbicidal action against VERPE (VERPE: Veronica persica): 100%
Herbicidal action against VIOTR (VIOTR: Viola tricolor): 100%

CC(C)=CC(C)(O)c1cnc(N[C@H]2c3cc(C)ccc3C[C@@H]2C)nc1 (stereo partly shown) [Example 1.27]
Herbicidal action against AMARE ([1]; dosage 320 g/ha): 100%
Herbicidal action against MATIN [2]: 100%
Herbicidal action against POLCO ([3]; dosage 320 g/ha): 100%
Herbicidal action against VERPE (VERPE: Veronica persica): 100%
Herbicidal action against VIOTR (VIOTR: Viola tricolor): 100%

C=CCCC(C)(O)c1cnc(N[C@H]2c3cc(C)ccc3C[C@@H]2C)nc1 (stereo partly shown) [Example 1.28]
Herbicidal action against AMARE ([1]; dosage 320 g/ha): 100%
Herbicidal action against MATIN [2]: 100%
Herbicidal action against POLCO ([3]; dosage 320 g/ha): 100%
Herbicidal action against VERPE (VERPE: Veronica persica): 100%
Herbicidal action against VIOTR (VIOTR: Viola tricolor): 100%

Cc1nc(N[C@@H]2CCc3ccccc32)ncc1C(C)O (stereo partly shown) [Example 1.47]
Herbicidal action against AMARE ([1]; dosage 320 g/ha): 100%
Herbicidal action against MATIN [2]: 100%
Herbicidal action against POLCO ([3]; dosage 320 g/ha): 100%
Herbicidal action against VERPE (VERPE: Veronica persica): 100%
Herbicidal action against VIOTR (VIOTR: Viola tricolor): 100%

Cc1ccc2c(c1)[C@H](Nc1ncc(C(C)O)c(C)n1)CCO2 (stereo partly shown) [Example 1.49]
Herbicidal action against AMARE ([1]; dosage 320 g/ha): 100%
Herbicidal action against MATIN [2]: 100%
Herbicidal action against POLCO ([3]; dosage 320 g/ha): 100%
Herbicidal action against VERPE (VERPE: Veronica persica): 100%
Herbicidal action against VIOTR (VIOTR: Viola tricolor): 100%
Herbicidal action against ABUTH [4]: 80%
Herbicidal action against AMARE [5]: 90%
Herbicidal action against ECHCG [6]: 80%
Herbicidal action against STEME (STEME: Stellaria media [7]): 90%

Cc1ccc2c(c1)[C@H](Nc1ncc(C(C)(C)O)c(N)n1)[C@@H](C)C2 [drawing 4, reference compound]
Herbicidal action against ABUTH ([8]; dosage 80 g/ha): 20%
Herbicidal action against ABUTH ([8]; dosage 320 g/ha): 60%
Herbicidal action against ALOMY ([9]; pre-emergence, dosage 80 g/ha): 30%
Herbicidal action against ALOMY ([9]; pre-emergence, dosage 320 g/ha): 60%
Herbicidal action against AVEFA (AVEFA: Avena fatua; dosage 80 g/ha): 10 10%
Herbicidal action against AVEFA (AVEFA: Avena fatua; dosage 320 g/ha): 10 10%
Herbicidal action against ECHCG ([10]; pre-emergence, dosage 80 g/ha): 30%
Herbicidal action against LOLRI (LOLRI: Lolium rigidum; dosage 80 g/ha): 40%
Herbicidal action against SETVI (SETVI: Setaria viridis; pre-emergence, dosage 80 g/ha): 30%

Cc1ccc2c(c1)[C@H](Nc1ncc(C(C)(C)O)c(N)n1)[C@@H](C)C2 [drawing 6, reference compound]
Herbicidal action against AMARE ([1]; dosage 80 g/ha): 40%
Herbicidal action against HORMU (HORMU: Hordeum murinum; pre-emergence, dosage 80 g/ha): 20%
Herbicidal action against PHBPU (PHBPU: Ipomoea purpurea; dosage 80 g/ha): 0%
Herbicidal action against PHBPU (PHBPU: Ipomoea purpurea; dosage 320 g/ha): 0%
Herbicidal action against POLCO ([3]; dosage 80 g/ha): 0%

Cc1cc2c(s1)CCCC2Nc1ncc(C(C)(C)O)c(C)n1 (stereo not shown) [drawing 16, reference compound]
Herbicidal efficacy against ABUTH [8]: 80
Herbicidal efficacy against ALOMY [9, 12]: 30
Herbicidal efficacy against ECHCG [10, 12]: 30
Herbicidal efficacy against LOLRI (LOLRI: Lolium rigidum): 0
Herbicidal efficacy against PHBPU (PHBPU: Ipomoea purpurea): 0
Herbicidal efficacy against POLCO [3]: 20
Herbicidal efficacy against SETVI (SETVI: Setaria viridis; [12]): 80

Cc1cc2c(s1)CCCC2Nc1ncc(C(C)O)c(C)n1 (stereo not shown) [drawing 17, reference compound]
Herbicidal efficacy against ABUTH [8]: 0
Herbicidal efficacy against ALOMY [9, 12]: 0
Herbicidal efficacy against ECHCG [10, 12]: 0
Herbicidal efficacy against LOLRI (LOLRI: Lolium rigidum): 0
Herbicidal efficacy against PHBPU (PHBPU: Ipomoea purpurea): 0
Herbicidal efficacy against POLCO [3]: 20
Herbicidal efficacy against SETVI (SETVI: Setaria viridis; [12]): 20

Cc1cc2c(s1)CCCC2Nc1ncc(C(C)(C)O)c(C)n1 (stereo not shown) [drawing 18, reference compound]
Herbicidal efficacy against ALOMY [9, 13]: 20
Herbicidal efficacy against AMARE [1]: 20
Herbicidal efficacy against ECHCG [10, 13]: 30
Herbicidal efficacy against HORMU (HORMU: Hordeum murinum): 10
Herbicidal efficacy against MATIN [2]: 20
Herbicidal efficacy against SETVI (SETVI: Setaria viridis; [13]): 20
Herbicidal efficacy against STEME (STEME: Stellaria media [11]): 30

Cc1cc2c(s1)CCCC2Nc1ncc(C(C)O)c(C)n1 (stereo not shown) [drawing 19, reference compound]
Herbicidal efficacy against ALOMY [9, 13]: 10
Herbicidal efficacy against AMARE [1]: 30
Herbicidal efficacy against ECHCG [10, 13]: 40
Herbicidal efficacy against HORMU (HORMU: Hordeum murinum): 0
Herbicidal efficacy against MATIN [2]: 20
Herbicidal efficacy against SETVI (SETVI: Setaria viridis; [13]): 20
Herbicidal efficacy against STEME (STEME: Stellaria media [11]): 20
